{
  "source": "ChEMBL document CHEMBL3638605",
  "about": "“N-hydroxy-benzamids for the treatment of cancer” (2014)",
  "target": "T1, Histone deacetylase 8 (Homo sapiens, UniProt Q9BY41)",
  "T1 sequence (Q9BY41 whole entry)": "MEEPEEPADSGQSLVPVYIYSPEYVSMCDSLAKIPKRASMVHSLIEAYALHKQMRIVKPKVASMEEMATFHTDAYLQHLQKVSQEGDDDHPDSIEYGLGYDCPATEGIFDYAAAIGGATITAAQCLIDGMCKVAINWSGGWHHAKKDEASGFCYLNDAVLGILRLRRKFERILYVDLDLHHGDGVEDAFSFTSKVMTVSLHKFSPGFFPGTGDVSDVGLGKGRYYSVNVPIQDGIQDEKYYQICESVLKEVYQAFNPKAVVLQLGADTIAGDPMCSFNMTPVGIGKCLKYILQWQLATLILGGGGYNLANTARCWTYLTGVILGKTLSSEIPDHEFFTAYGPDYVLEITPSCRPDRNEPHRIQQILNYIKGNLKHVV",
  "test": "Fluorometric Assay: Compounds were tested for their ability to inhibit histone deacetylase 8 using an in vitro deacetylation assay. In a detailed procedure, 8 μl of HDAC8 enzyme solution (0.125 μg/μl) was transferred to assay plates (CORNING 3676). 1 μl of half-log diluted compounds were added into wells and incubated for 15 min at rt. After that, 8 μl of substrate solution was transferred to the wells and incubated for 30 min at rt. After deacetylation of the substrate by incubation with HDAC8 enzyme, subsequent exposure to a developing reagent produced a fluorophore that was directly proportional to the level of deacetylation. So 4 μl of developer regent (Cayman 10006394) was added into the wells in the assay plates and incubated for 15 min. The fluorescence signal was measured by a FlexStation3 plate reader (excitation wave length 340-360 nm; emission wave length 440-465 nm).",
  "data": [
    {"smiles": "O=C(NO)c1ccc2c(c1)CC(Nc1nccc(-c3cccnc3)n1)CN2", "note": "(stereo unspecified)", "values": [
      {"measurement": "IC50", "result": 470, "unit": "nM"}
    ]}
  ]
}
